Earlier results as cited in PMC5465828 (Research in Pharmaceutical Sciences, 2017).

Test system: human colon carcinoma HCT116 cell line
Settings: read-out: IC50 of doxorubicin in HCT116 cells; doxorubicin alone

IC50: 200 nM
SMILES: COc1cccc2c1C(=O)c1c(O)c3c(c(O)c1C2=O)C[C@@](O)(C(=O)CO)C[C@@H]3O[C@H]1C[C@H](N)[C@H](O)[C@H](C)O1 [doxorubicin]
